Source: article PMC6958329, “New ^55Co-labeled Albumin-Binding Folate Derivatives as Potential PET Agents for Folate Receptor Imaging” (Pharmaceuticals, 2019)
Where “and” joins values, the source holds several entries; their conditions need not be identical. Equal values may be shown once.

Test system: KB tumor bearing mice
Assay: In vivo biodistribution in KB tumor bearing mice
Details: for Biodistribution, Tumor: KB tumor; for Biodistribution, Tumor / Biodistribution, Blood / Biodistribution, Bone / Biodistribution, Brain / Biodistribution, Fat / Biodistribution, Heart / Biodistribution, Intestine / Biodistribution, Kidney / Biodistribution, Liver / Biodistribution, Lungs / Biodistribution, Muscle / Biodistribution, Pancreas / Biodistribution, Skin / Biodistribution, Spleen / Biodistribution, Stomach: n = 4
Protocol: The in vivo behavior of each ^55Co-labeled folate was evaluated in KB-tumor bearing mice via biodistribution studies and PET/CT imaging. The biodistribution data are presented in Table 3 and Table 4, and are reported as the percent of injected activity per gram of tissue (% IA/g). Statistically significant differences in renal uptake between the two ^55Co-labeled compounds were observed. At 4 h post-injection, the radiofolates had uptake values in the kidneys of 36% ± 7% IA/g for [^55Co]Co-cm10 and 53% ± 12% IA/g for [^55Co]Co-rf42. […] Lower renal uptake for [^55Co]Co-cm10 may in part be due to slightly higher lipophilicity (supported by its larger molecular weight and a longer HPLC-retention time) in comparison to [^55Co]Co-rf42. […] Despite the differences in blood retention, tumor uptake for both radiofolates was similar with values of 17% ± 2% IA/g for [^55Co]Co-cm10 and 17% ± 4% IA/g for [^55Co]Co-rf42 at 4 h post-injection. […] The PET/CT images (presented as maximal intensity projections) confirm the biodistribution findings, highlighting the kidneys and tumors as the tissues with the highest activity uptake (Figure 5).
All animal studies were performed using a protocol approved by the Institutional Animal Care and Use Committee at the University of Alabama at Birmingham and were in compliance with national animal welfare policies and guidelines. Female athymic nude mice (Charles River, Wilmington, MA, USA), age 5 weeks, were implanted with KB cells via subcutaneous injection of 5 × 10^6 cells in 100 μL of PBS in the right shoulder. Tumors were allowed to grow for 12 days, during which time mice were fed Teklad Folic Acid Deficient Diet (Envigo, Huntingdon, United Kingdom).
Biodistribution and imaging studies for [^55Co]Co-cm10 and [^55Co]Co-rf42 were performed at 4 h and 24 h post-injection on groups of four mice. An additional cohort of mice was co-injected with a blocking dose of folic acid (100 μg), and biodistribution was performed at 4 h post-injection. At 2 h, mice were induced using 3% isoflurane and a 50 μL blood sample was taken retro-orbitally to monitor blood activity at an early time point.
The radiofolates were prepared as described with final molar activities of 835.5 MBq/μmol (22.6 mCi/μmol) for [^55Co]Co-cm10 and 957.6 MBq/μmol (25.9 mCi/μmol) for [^55Co]Co-rf42 in 60 μL reaction volume. Injections (100 µL) were prepared by dilution of the radiofolates in sterile saline (pH = 7). The final [^55Co]Co-cm10 injection contained 1,924 kBq (52 μCi) and 2.3 nmol cm10 and the final [^55Co]Co-rf42 injection contained 2,479 kBq […] and 2.4 nmol rf42. Blocking doses contained an additional 100 µg of folic acid and were prepared by diluting the radiofolates with 1 μg/μL folic acid in sterile saline (pH adjusted to 7). Mice were euthanized humanely by cervical dislocation following anaesthetization with 3% isoflurane, and their organs were collected, weighed and counted using an automatic gamma counter.

[1] = 4 h, co-administration of 100 µg folic acid blocking dose

Nc1nc2ncc(CNc3ccc(C(=O)N[C@@H](CCC(=O)NC(CCCCNC(=O)CN4CCN(CC(=O)O)CCN(CC(=O)O)CCN(CC(=O)O)CC4)C(=O)NC(CCCCNC(=O)CCCc4ccc(I)cc4)C(=O)O)C(=O)O)cc3)nc2c(=O)[nH]1.[55Co] (stereo partly shown) [[^55Co]Co-cm10]
Biodistribution, Tumor [1]: 8 ± 4 % IA/g | Biodistribution, Blood [1]: 17 ± 3 % IA/g | Biodistribution, Bone [1]: 2.2 ± 0.8 % IA/g | Biodistribution, Brain [1]: 0.6 ± 0.2 % IA/g | Biodistribution, Fat [1]: 4 ± 1 % IA/g | Biodistribution, Heart [1]: 4.2 ± 0.7 % IA/g | Biodistribution, Intestine [1]: 2.3 ± 0.4 % IA/g | Biodistribution, Kidney [1]: 16 ± 4 % IA/g | Biodistribution, Liver [1]: 3.5 ± 0.5 % IA/g | Biodistribution, Lungs [1]: 7 ± 3 % IA/g | Biodistribution, Muscle [1]: 2.1 ± 0.7 % IA/g | Biodistribution, Pancreas [1]: 2.4 ± 0.7 % IA/g | Biodistribution, Skin [1]: 5 ± 1 % IA/g | Biodistribution, Spleen [1]: 2.2 ± 0.4 % IA/g | Biodistribution, Stomach [1]: 1.5 ± 0.1 % IA/g | Biodistribution, Blood (4 h post-injection): 14 % IA/g and 13.8 ± 0.8 % IA/g | Biodistribution, Bone (4 h post-injection): 1.8 ± 0.6 % IA/g | Biodistribution, Brain (4 h post-injection): 0.8 ± 0.1 % IA/g | Biodistribution, Fat (4 h post-injection): 5 ± 1 % IA/g | Biodistribution, Heart (4 h post-injection): 4.7 ± 0.6 % IA/g | Biodistribution, Intestine (4 h post-injection): 1.9 ± 0.3 % IA/g | Biodistribution, Liver (4 h post-injection): 3.7 ± 0.6 % IA/g | Biodistribution, Lungs (4 h post-injection): 5.4 ± 0.6 % IA/g | Biodistribution, Muscle (4 h post-injection): 2.4 ± 0.9 % IA/g | Biodistribution, Pancreas (4 h post-injection): 2.4 ± 0.7 % IA/g | Biodistribution, Skin (4 h post-injection): 6 ± 2 % IA/g | Biodistribution, Spleen (4 h post-injection): 2.0 ± 0.4 % IA/g | Biodistribution, Stomach (4 h post-injection): 0.8 ± 0.2 % IA/g | Biodistribution, Blood (24 h post-injection): 2.6 ± 0.3 % IA/g | Biodistribution, Bone (24 h post-injection): 0.8 ± 0.2 % IA/g | Biodistribution, Brain (24 h post-injection): 0.45 ± 0.08 % IA/g | Biodistribution, Fat (24 h post-injection): 3 ± 2 % IA/g | Biodistribution, Heart (24 h post-injection): 1.7 ± 0.2 % IA/g | Biodistribution, Intestine (24 h post-injection): 0.92 ± 0.08 % IA/g | Biodistribution, Kidney (24 h post-injection): 30 ± 2 % IA/g | Biodistribution, Liver (24 h post-injection): 1.9 ± 0.3 % IA/g | Biodistribution, Lungs (24 h post-injection): 1.9 ± 0.3 % IA/g | Biodistribution, Muscle (24 h post-injection): 1.3 ± 0.3 % IA/g | Biodistribution, Pancreas (24 h post-injection): 1.4 ± 0.2 % IA/g | Biodistribution, Skin (24 h post-injection): 7 ± 3 % IA/g | Biodistribution, Spleen (24 h post-injection): 1.0 ± 0.1 % IA/g | Biodistribution, Stomach (24 h post-injection): 0.34 ± 0.09 % IA/g

Nc1nc2ncc(CNc3ccc(C(=O)N[C@@H](CCC(=O)NC(CCCCNC(=O)CCC(C(=O)O)N4CCN(CC(=O)O)CCN(CC(=O)O)CC4)C(=O)NC(CCCCNC(=O)CCCc4ccc(I)cc4)C(=O)O)C(=O)O)cc3)nc2c(=O)[nH]1.[55Co] (stereo partly shown) [[^55Co]Co-rf42]
Biodistribution, Tumor [1]: 7 ± 2 % IA/g | Biodistribution, Blood [1]: 15 ± 2 % IA/g | Biodistribution, Bone [1]: 1.7 ± 0.5 % IA/g | Biodistribution, Brain [1]: 0.5 ± 0.1 % IA/g | Biodistribution, Fat [1]: 2.7 ± 0.6 % IA/g | Biodistribution, Heart [1]: 4 ± 1 % IA/g | Biodistribution, Intestine [1]: 2.2 ± 0.3 % IA/g | Biodistribution, Kidney [1]: 12 ± 4 % IA/g | Biodistribution, Liver [1]: 4 ± 1 % IA/g | Biodistribution, Lungs [1]: 5.6 ± 0.3 % IA/g | Biodistribution, Muscle [1]: 1.5 ± 0.3 % IA/g | Biodistribution, Pancreas [1]: 2.2 ± 0.2 % IA/g | Biodistribution, Skin [1]: 3.5 ± 0.8 % IA/g | Biodistribution, Spleen [1]: 2.1 ± 0.3 % IA/g | Biodistribution, Stomach [1]: 1.1 ± 0.5 % IA/g | Biodistribution, Blood (4 h post-injection): 8 % IA/g and 8 ± 3 % IA/g | Biodistribution, Bone (4 h post-injection): 1.3 ± 0.2 % IA/g | Biodistribution, Brain (4 h post-injection): 0.7 ± 0.1 % IA/g | Biodistribution, Fat (4 h post-injection): 3.2 ± 0.9 % IA/g | Biodistribution, Heart (4 h post-injection): 2.9 ± 0.4 % IA/g | Biodistribution, Intestine (4 h post-injection): 2.2 ± 0.5 % IA/g | Biodistribution, Liver (4 h post-injection): 3.8 ± 0.6 % IA/g | Biodistribution, Lungs (4 h post-injection): 4 ± 1 % IA/g | Biodistribution, Muscle (4 h post-injection): 1.6 ± 0.4 % IA/g | Biodistribution, Pancreas (4 h post-injection): 2.4 ± 0.5 % IA/g | Biodistribution, Skin (4 h post-injection): 8 ± 1 % IA/g | Biodistribution, Spleen (4 h post-injection): 1.5 ± 0.3 % IA/g | Biodistribution, Stomach (4 h post-injection): 0.8 ± 0.4 % IA/g | Biodistribution, Blood (24 h post-injection): 1.0 ± 0.4 % IA/g | Biodistribution, Bone (24 h post-injection): 0.6 ± 0.2 % IA/g | Biodistribution, Brain (24 h post-injection): 0.4 ± 0.1 % IA/g | Biodistribution, Fat (24 h post-injection): 2.7 ± 0.2 % IA/g | Biodistribution, Heart (24 h post-injection): 2.0 ± 0.4 % IA/g | Biodistribution, Intestine (24 h post-injection): 0.8 ± 0.2 % IA/g | Biodistribution, Kidney (24 h post-injection): 46 ± 14 % IA/g | Biodistribution, Liver (24 h post-injection): 2.9 ± 0.5 % IA/g | Biodistribution, Lungs (24 h post-injection): 1.5 ± 0.4 % IA/g | Biodistribution, Muscle (24 h post-injection): 1.2 ± 0.6 % IA/g | Biodistribution, Pancreas (24 h post-injection): 1.9 ± 0.3 % IA/g | Biodistribution, Skin (24 h post-injection): 6 ± 2 % IA/g | Biodistribution, Spleen (24 h post-injection): 0.6 ± 0.2 % IA/g | Biodistribution, Stomach (24 h post-injection): 0.5 ± 0.2 % IA/g | tumor-to-kidney ratio (compared with [^64Cu]Cu-rf42 and [^68Ga]Ga-rf42, Figure 6): lowest
